One compound from patent publication US20250206708A1, “AN OXAZIRIDINE PLATFORM FOR TARGETING FUNCTIONAL ALLOSTERIC METHIONINE SITES” (Novartis AG, priority 2022, published 2025) can be followed below.

The test system of assay [1] is MCF-7 cells. In words: Cell Counting Kit-8 cell viability assay in MCF-7. Type of assay: cell-based. The conditions noted are these: Homo sapiens, MCF7; 24 h, CCK-8; read-out: EC50, decrease in cell viability of MCF-7 cells. Here is the method: All cells were maintained as a monolayer in exponential growth at 37° C. in a 5% CO2 atmosphere. MCF-7 and HepG2 were maintained in Dulbecco's Modified Eagle Medium (DMEM, Gibco) supplemented with 10% (v/v) fetal bovine serum (FBS, Seradigm). HT-29 and SW-48 were maintained in RPMI 1640 Medium (Gibco) supplemented with 10% FBS.
All cells dosed with oxaziridine were treated using a 2% DMSO/media solution. Oxaziridines were dissolved in DMSO and used the same day as treatment. Media was removed from cells and replaced with fresh media containing oxaziridine in DMSO for a final concentration of 2% DMSO. Control wells were treated with 2% DMSO/media. Cells were incubated at 37° C. in a 5% CO2 atmosphere.
Commercially available Cell Counting Kit-8 Assay (Dojindo) was used to investigate cell viability after treatment with oxaziridines. Cells were plated in 96-well plates (black/clear bottom; Thermo Fisher) and grown to 75% confluency. Media was removed and replaced with media containing 2% DMSO and indicated compound concentration. Cells were allowed to incubate 24 h. To assess viability, media was removed and replaced with 100 μL media containing 10% CCK-8 assay solution. Plates were incubated at 37° C. in a 5% CO2 atmosphere for 1-4 h until an orange color was visible. Viability was quantified via plate reader (monofilter) with absorption at 450 nm.

Assay [2] concerns CDK4. The assay is described as follows: Western blot of Rb phosphorylation (S780, S807/811) as cellular CDK4 activity. Type of assay: cell-based, human. The conditions noted are these: serum-synchronized MCF-7 cells, dose of 500 μM. The method, then: Cells were synchronized to G1 via serum starvation. Cells were plated at 50% confluency and allowed to adhere overnight in serum-containing media. The next morning, the cells were gently washed twice with HBSS, and serum-free media was added. Cells were allowed to incubate an additional […], […]. Final cell confluency should remain below 75% for optimal results.
Cells were seeded in full media at 8 e5 cells/well in a 6-well plate. They were then serum-synchronized, as outlined in Example 15, and treated with compound as described previously. Cells were monitored by eye for cell death and harvested once high-dose cells were round but not detached. Cells were transferred to ice and washed twice gently with 1 mL ice-cold PBS. 10 mL of lysis buffer was prepared by dissolved a protease-inhibitor table (Pierce; cat no. A32953) and a phosphatase-inhibitor tablet (Roche; cat no. 4906845001) in 10 mL PBS (1% Triton X-100). Cells were scraped to harvest, transferred to 1.5 mL Eppendorf tubes, and incubated at 4° C. for 30 min on a rotator. Samples were spun at 5000×g for 10 min to clarify lysate. Supernatant was transferred to a new tube and protein concentration quantified via BCA assay (Pierce; cat no. 23225). Samples were normalized to the lowest concentration using chilled lysis buffer. […]
Background: A western blot detects proteins with antibodies after separation by electrophoresis.

The term EC50 denotes the concentration needed to bring the measured effect to its halfway point.

Regarding `O=C(N1CC2COCC2C1)N1OC1c1ccccc1` (centres unmarked) [Compound 148], the EC50 in assay [1] was found to be 330 µM. Moreover, the “signal from pRb antibodies (cellular CDK4 activity)” value in assay [2] is “marked decrease in signal”.
